{
  "source": "patent US20160220500A1",
  "about": "“Targeting Intracellular Copper Ions for Inhibiting Angiogenesis Using Nanoparticles of Ternary Inorganic Metal Sulfide M1M2S4 (M1, independently, is Mg, Ca, Mn, Fe, or Zn; M2 = Mo or W) Compounds to Treat Metastatic Cancer” (KENT STATE UNIVERSITY, priority 2014, published 2016)",
  "tested_on": "HuVEC cells",
  "assay": "VEGF-induced tube formation assay",
  "format": "cell-based, human",
  "settings": "VEGF (50 ng/ml), sulforaphane 5 uM",
  "protocol": "The tube formation assay is an in vitro a model of angiogenesis commonly used to measure the ability of endothelial cells to form “tubes” (i.e. three-dimensional structures that resemble vessel walls). Tube formation studies were conducted in a 96-well plate format using an in vitro angiogenesis assay kit from Trevigen Inc. (Trevigen, Gaithersburg, Md.). Prior to tube formation assay, Huvec cells were starved overnight in EGM-2 basal medium in the culture dish. […] The cells were harvested and counted, and a single cell suspension at 1×10^6 cells/ml was prepared. […] Tube formation was visualized using a fluorescence microscope (485 nm excitation/520 nm emission) at 200× total magnification. Numbers of branch points were counted for each of six randomly chosen fields, and then averaged for each condition. […] Statistical significance was determined using student t-test.\nThe tube formation was quantified and expressed as mean number of branching points per viewing field as shown in FIG. 5F for the high dose treatment using nanoparticles of ZnMoS4.\nThe Huvec cells were harvested, counted, and diluted in EBM-2 basal medium in the presence (Panels B-E) or absence (Panels A) of VEGF (50 ng/ml) and ZnMoS4 NPs at 50 ng/ml (Panel C) and 10 ng/ml (Panel D). […] F. Quantitative assessment of the tube formation was done by counting the average number of branch points per viewing field. […]",
  "data": [
    {"smiles": "C[S+]([O-])CCCCN=C=S", "note": "(stereo not shown) [sulforaphane]", "values": [
      {"measurement": "tube formation", "result": "prevented tube formation"}
    ]}
  ]
}
